Key:
[1] = in vitro skin penetration, human cadaver skin in Franz-type diffusion cells; type: in vitro ADME
Experimental: An in vitro skin penetration model using human cadaver skin mounted in Franz-type diffusion cells (FDC) was chosen to determine the skin permeation of the compound of Formula I applied as a 2% cream to the epidermal surface. Transdermal flux into a receptor fluid was measured over a period of 46 hours after application of the formulations. At the end of the 46-hour incubation period, the skin was tape-stripped and heat separated based on an established method and the concentration of the compound of Formula I was measured in the residual epidermis and dermis. The applied formulations comprised of 2% w/w compound of Formula I, 46% w/w white petrolatum, 8% w/w mineral oil, 8% w/w propylene glycol, 6.6% w/w ST-cyclomethicone-SNF, 3.3% w/w emulsifier 10, 2% w/w ST-elastomer-10, 0.08% w/w methylparaben, 0.06% w/w sodium phosphate dibasic anhydrous, 0.05% w/w citric acid anhydrous, 0.02% w/w propylparaben, and q.s. purified water. Vehicle cream comprised of 48% w/w white petrolatum, 8% w/w mineral oil, 8% w/w propylene glycol, 6.6% w/w ST-cyclomethicone-SNF, 3.3% w/w emulsifier 10, 2% w/w ST-elastomer-10, 0.08% w/w methylparaben, 0.06% w/w sodium phosphate dibasic anhydrous, 0.05% w/w citric acid anhydrous, 0.02% w/w propylparaben, and q.s. purified water was also tested as a negative control. […]
A high performance liquid chromatography UV (“HPLC-UV”) analytical method and an LC-MS/MS method for detecting the compound of Formula I in the skin and in the receptor fluid samples, respectively, was implemented and employed mobile phases A (0.05 mL trifluoroacetic acid (TFA) in 1000 mL LC-MS grade water) and B (0.05 mL TFA in 1000 mL LC-MS grade acetonitrile). The lower level of quantification (LLOQ) for the compound of Formula I for the LC-MS/MS method was determined to be in the 6-10 ng/mL range.

[2] = system: cynomolgus monkeys with unilateral (OS) ocular hypertension; test: diurnal intraocular pressure during 4-week topical ocular treatment in ocular hypertensive monkeys; type: in vivo; conditions: 4 weeks
Excerpt: To test the effect of the compound of Formula I on intraocular pressure (IOP), eight female cynomolgus monkeys with unilateral (OS) ocular hypertension induced by prior photocoagulation (laser) procedure to the trabecular meshwork (TM) were used at an age between 11 and 14 years at the start of the study. Laser induced ocular hypertension had been created at least 9 years earlier in the study animals. Animals and treatments were randomized according to a 4×4 replications Williams-type Latin Square design layout. Following random assignment of a number between 1 and 8, the eight primates were randomized two each into four treatment groups (A-D), with treatments masked for the investigators until all data had been collected and entered into a database. […]
Conscious animals were seated in custom-designed chairs, and […] was measured with a pneumatonometer (Classic 30, Reichert Depew) after topical application of proparacaine hydrochloride (0.13%) in both eyes (FIG. 1). […] During run-in and treatment periods, diurnal IOP was determined two times per week at approximately 8:30 am, 1 pm, and 5 pm. For each animal bilateral tonometry was followed immediately by topical instillation of the appropriate drug formulation A, B, C, or D. During washout periods, diurnal IOP was measured once per week in both eyes at approximately 8:30 am, 1 pm, and 5 pm.

[3] = 46 hours after 10 μL of 2% cream on epidermal surface, 6 replicates

C[C@@H]1C[C@H]2[C@@H]3C[C@H](F)C4=CC(=O)C=C[C@]4(C)[C@@]3(F)[C@@H](O)C[C@]2(C)[C@@]1(OC(=O)C1C(C)(C)C1(C)C)C(=O)OCC#N [compound of Formula I, 6α,9α-difluoro-11 β-hydroxy-16α-methyl-3-oxo-17α-(2,2,3,3-tetramethycyclopropylcarbonyl)oxy-androsta-1,4-diene-17β-carboxylic acid cyanomethyl ester]
detection in transdermal receptor fluid ([1]; 4, 8, 24 and 46 hours after application of 2% cream): not in the transdermal receptor fluid
accumulated amount in the dermis [1, 3]: 0.73+/−0.21 μg/cm^2
accumulated amount in the epidermis [1, 3]: 2.89+/−0.32 μg/cm^2
IOP compared with dexamethasone treatment ([2]; 10 mg/mL suspension vs MAXIDEX 1 mg/mL, TID): significantly lower than dexamethasone treatment
effect on intraocular pressure (IOP) ([2]; 10 mg/mL suspension, 25 μL OU TID, topical to the eye): did not result in increased IOP

Source: US12350277B2, “Compositions and methods of use for treating aberrant inflammation in peri-ocular secretory glands or at the ocular surface” (CS Pharmaceuticals Limited, priority 2017, dated 2025)
